Measured values from ChEMBL document CHEMBL1806468, “A facile synthesis of 1,5-disubstituted-2-aminoimidazoles: antibiotic activity of a first generation library” (2011).
Active and inactive are the calls of the source. No cut-off for these calls is given here.

Key:
Acinetobacter baumannii [1] = assay: Antimicrobial activity against Acinetobacter baumannii ATCC 19606 after 16 hrs by broth microdilution method; format: functional; settings: ATCC 19606 = CIP 70.34 = JCM 6841, 16 h
Escherichia coli [2] = assay: Antimicrobial activity against Escherichia coli ATCC 35695 after 16 hrs by broth microdilution method; format: functional; settings: ATCC 35695, 16 h
Staphylococcus aureus [3] = assay: Antimicrobial activity against methicillin-susceptible Staphylococcus aureus ATCC 29213 after 16 hrs by broth microdilution method; format: functional; settings: ATCC 29213, 16 h
[4] = test system: Staphylococcus epidermidis; assay: Antimicrobial activity against methicillin-resistant Staphylococcus epidermidis ATCC 51625 after 16 hrs by broth microdilution method; format: functional; settings: ATCC 51625, 16 h
Staphylococcus aureus [5] = assay: Antimicrobial activity against methicillin-resistant Staphylococcus aureus BAA-44 after 16 hrs by broth microdilution method; format: functional; settings: BAA-44, 16 h
Klebsiella pneumoniae = assay: Antimicrobial activity against carbapenem-resistant Klebsiella pneumoniae BAA-2146 expressing […] gene after 16 hrs by broth microdilution method; format: functional; settings: BAA-2146, 16 h
Acinetobacter baumannii [6] = assay: Antimicrobial activity against multidrug-resistant Acinetobacter baumannii BAA-1605 after 16 hrs by broth microdilution method; format: functional; settings: BAA-1605, 16 h
[7] = test system: Staphylococcus epidermidis; assay: Antimicrobial activity against Staphylococcus epidermidis ATCC 29886 after 16 hrs by broth microdilution method; format: functional; settings: ATCC 29886, 16 h
Acinetobacter baumannii [8] = assay: Inhibition of Acinetobacter baumannii BAA-1605 biofilm formation after 24 hrs by crystal violet reporter assay; format: functional; for INH: test concentration or dose not given here
Staphylococcus aureus [9] = assay: Inhibition of Staphylococcus aureus ATCC 29213 biofilm formation after 24 hrs by crystal violet reporter assay; format: functional; note: test concentration or dose not given here
Acinetobacter baumannii [10] = assay: Inhibition of Acinetobacter baumannii ATCC 19606 biofilm formation after 24 hrs by crystal violet reporter assay; format: functional, ATCC 19606 = CIP 70.34 = JCM 6841; note: test concentration or dose not given here
Escherichia coli [11] = assay: Inhibition of Escherichia coli ATCC 35695 biofilm formation after 24 hrs by crystal violet reporter assay; format: functional; note: test concentration or dose not given here
Staphylococcus aureus [12] = assay: Inhibition of Staphylococcus aureus BAA-44 biofilm formation after 24 hrs by crystal violet reporter assay; format: functional; note: test concentration or dose not given here

SMILES | MIC (Acinetobacter baumannii [1]) [µg/mL] | MIC (Escherichia coli [2]) [µg/mL] | MIC (Staphylococcus aureus [3]) [µg/mL] | MIC [4] [µg/mL] | MIC (Staphylococcus aureus [5]) [µg/mL] | MIC (Klebsiella pneumoniae) [µg/mL] | MIC (Acinetobacter baumannii [6]) [µg/mL] | MIC [7] [µg/mL] | inhibition (Acinetobacter baumannii [8]) | inhibition (INH) (Staphylococcus aureus [9]) [%] | inhibition (INH) (Acinetobacter baumannii [10]) [%] | inhibition (INH) (Escherichia coli [11]) [%] | inhibition (INH) (Staphylococcus aureus [12]) [%] | inhibition (INH) (Acinetobacter baumannii [8]) [%]
CCCCCn1c(Cc2ccccc2)cnc1N.Cl | 64 | 64 | 64 | 64 | 128 | 128 | 64 | 32 | – | – | – | – | – | –
CCCCCCc1cnc(N)n1CCCCC.Cl | 64 | 32 | 32 | 32 | 32 | 64 | 64 | 8 | inactive | 92 | 97 | 97 | 98 | –
CCCCCCCCn1c(CC(C)C)cnc1N.Cl | 16 | 2 | 16 | 8 | 8 | 64 | 16 | 2 | – | 93 | 97 | 88 | 97 | 96
Cl.Nc1ncc(CCCCNC(=O)OCc2ccccc2)n1CCCc1ccccc1 | 32 | 64 | 16 | 16 | 16 | 128 | 32 | 16 | – | – | – | – | – | –
CCCCCCCCn1c(-c2ccccc2)cnc1N.Cl | 16 | 64 | 64 | 64 | 64 | 128 | 64 | 16 | – | – | – | – | – | –
Cl.Nc1ncc(CCCCNC(=O)OCc2ccccc2)n1Cc1ccccc1 | 64 | 64 | 32 | 32 | 32 | 128 | 64 | 32 | – | – | – | – | – | –
CCCCCCc1cnc(N)n1CCCc1ccccc1.Cl | 16 | 8 | 8 | 16 | 8 | 64 | 32 | 4 | – | 98 | 96 | 94 | 91 | 98
CCCCCCCCn1c(Cc2ccccc2)cnc1N.Cl | 128 | 128 | 128 | 128 | 128 | > 128 | 128 | 128 | – | – | – | – | – | –
CCCCCn1c(CC(C)C)cnc1N.Cl | 64 | 64 | > 128 | 128 | 128 | 128 | 64 | 32 | – | – | – | – | – | –
Cl.Nc1ncc(-c2ccccc2)n1CCCc1ccccc1 | 32 | 32 | 32 | 32 | 32 | 128 | 32 | 8 | – | 95 | 97 | 94 | 94 | 97
CCCCCCCCCCCCn1c(CCCCCC)cnc1N.Cl | 64 | 2 | 2 | 1 | 2 | > 128 | > 128 | 0.5 | – | – | – | – | – | –
CCCCCCc1cnc(N)n1Cc1ccccc1.Cl | 16 | 32 | 16 | 16 | 32 | 64 | 16 | 16 | – | – | – | – | – | –
CCCCCn1c(CCCCNC(=O)OCc2ccccc2)cnc1N.Cl | 128 | 32 | 32 | 64 | 128 | > 128 | 128 | 16 | – | – | – | – | – | –
CC(C)Cc1cnc(N)n1Cc1ccccc1.Cl | 128 | 128 | 128 | 128 | 128 | 128 | 128 | 16 | – | – | – | – | – | –
CCCCCCCCCCn1c(CCCCCC)cnc1N.Cl | 8 | 1 | 1 | 1 | 1 | 32 | 8 | 0.25 | – | 73 | 91 | 59 | 83 | 97
CC(C)Cc1cnc(N)n1CCCc1ccccc1.Cl | 32 | 16 | 64 | 32 | 32 | 128 | 32 | 4 | – | 87 | 96 | 92 | 96 | 97
CCCCCCCCn1c(CCCCCC)cnc1N.Cl | 8 | 2 | 2 | 2 | 2 | 32 | 8 | 0.125 | – | – | – | – | – | –
Cl.Nc1ncc(-c2ccccc2)n1Cc1ccccc1 | 128 | 8 | 8 | 8 | 4 | 128 | 16 | 2 | – | 93 | 96 | 89 | 95 | 97
CCCCCn1c(-c2ccccc2)cnc1N.Cl | 64 | 128 | 64 | 128 | 64 | > 128 | 64 | 16 | – | – | – | – | – | –
CCCCCCCCn1c(CCCCNC(=O)OCc2ccccc2)cnc1N.Cl | 64 | 8 | 16 | 16 | 16 | 128 | 64 | 2 | – | 91 | 93 | 90 | 84 | 91
Cl.Nc1ncc(Cc2ccccc2)n1Cc1ccccc1 | > 128 | 128 | > 128 | 128 | > 128 | > 128 | > 128 | 128 | – | – | – | – | – | –
Cl.Nc1ncc(Cc2ccccc2)n1CCCc1ccccc1 | 32 | 32 | 32 | 16 | 32 | 128 | 32 | 16 | – | 98 | 96 | 97 | 90 | 94
